# Measurements as given in patent US9695155B2, “Herbicidal substituted pyrimidinyloxy benzene compounds” (E. I. DU PONT DE NEMOURS AND COMPANY, priority 2013, dated 2017).
# What was measured:
# blackgrass = experiment: Test D preemergence; assay type: in vivo, Alopecurus myosuroides; settings: Alopecurus myosuroides, pre-emergence
# In short: (§1)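 Greenhouse herbicide screen. Sowing into silt loam for preemergence application; foliar application to 2–18 cm seedlings in potting mix for postemergence. 0–100 visual control rating after 7–21 d.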
# surinam grass = experiment: Test F preemergence; assay type: in vivo, Brachiaria decumbens; settings: 21 days, scale 0 to 100
# In short: (§2)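 Loam/sand mix; preemergence spray, non-phytotoxic solvent + surfactant; greenhouse 21 d; visual injury vs untreated, 0 (none)–100 (complete control).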
# dallisgrass = experiment: Test F preemergence; assay type: in vivo, Paspalum dilatatum; settings: 21 days, scale 0 to 100
# In short: as §2
# sandbur = experiment: Test F preemergence; assay type: in vivo, Cenchrus echinatus; settings: 21 days, scale 0 to 100
# In short: as §2
# galium = experiment: Test D preemergence; assay type: in vivo, Galium aparine; settings: Galium, pre-emergence
# In short: as §1
# guineagrass = experiment: Test F preemergence; assay type: in vivo, Panicum maximum; settings: 21 days, scale 0 to 100
# In short: as §2
# large (Lg) crabgrass = experiment: Test F preemergence; assay type: in vivo, Digitaria sanguinalis; settings: 21 days, scale 0 to 100
# Excerpt: (§3) Seeds of plant species selected from bermudagrass (Cynodon dactylon), surinam grass (Brachiaria decumbens), large (Lg) crabgrass (Digitaria sanguinalis), crabgrass, naked (naked crabgrass, Digitaria nuda), foxtail, green (green foxtail, Setaria viridis), johnsongrass (Sorghum halepense), kochia (Kochia scoparia), morningglory (pitted morningglory, Ipomoea lacunosa), nutsedge, purple (purple nutsedge, Cyperus rotundus), ragweed (common ragweed, Ambrosia elatior), mustard, black (black mustard, Brassica nigra), guineagrass (Panicum maximum), dallisgrass (Paspalum dilatatum), barnyardgrass (Echinochloa crus-galli), sandbur (southern sandbur, Cenchrus echinatus), sowthistle (common sowthistle, Sonchus oleraceous), Italian ryegrass (Lolium multiflorum), signalgrass (broadleaf signalgrass, Brachiaria platyphylla), dayflower (Virginia (VA) dayflower, Commelina virginica), bluegrass (annual bluegrass, Poa annua), quackgrass (Elytrigia repens), mallow (common mallow, Malva sylvestris), buckwheat, wild (wild buckwheat, Polygonum convolvulus), leafy spurge (Euphorbia esula), chickweed (common chickweed, Stellaria media), wild poinsettia (Euphorbia heterophylla), and pigweed (Amaranthus retroflexus) were planted into a blend of loam soil and sand and treated preemergence with test chemicals formulated in a non-phytotoxic solvent mixture which included a surfactant.
# (§4) Treated plants and controls were maintained in a greenhouse for 21 days, after which time all species were compared to controls and visually evaluated. Plant response ratings, summarized in Table F, are based on a scale of 0 to 100 where 0 is no effect and 100 is complete control. A dash (-) response means no test result.
# oilseed rape = experiment: Test D preemergence; assay type: in vivo, Brassica napus; settings: Brassica napus, pre-emergence
# In short: as §1
# foxtail, green = experiment: Test F preemergence; assay type: in vivo, Setaria viridis; settings: 21 days, scale 0 to 100
# Excerpt: as §3, §4
# bermudagrass = experiment: Test F preemergence; assay type: in vivo, Cynodon dactylon; settings: 21 days, scale 0 to 100
# In short: as §2
# speedwell = experiment: Test D postemergence; assay type: in vivo, Veronica persica; settings: Veronica persica, post-emergence
# Excerpt: Seeds of plant species selected from bluegrass (annual bluegrass, Poa annua), blackgrass (Alopecurus myosuroides), canarygrass (littleseed canarygrass, Phalaris minor), chickweed (common chickweed, Stellaria media), galium (catchweed bedstraw, Galium aparine), bromegrass, downy (downy bromegrass, Bromus tectorum), field poppy (Papaver rhoeas), field violet (Viola arvensis), green foxtail (Setaria viridis), deadnettle (henbit deadnettle, Lamium amplexicaule), Italian ryegrass (Lolium multiflorum), kochia (Kochia scoparia), lambsquarters (Chenopodium album), oilseed rape (Brassica napus), pigweed (Amaranthus retroflexus), chamomile (scentless chamomile, Matricaria inodora), Russian thistle (Salsola kali), speedwell (bird's-eye speedwell, Veronica persica), spring barley (Hordeum vulgare), spring wheat (Triticum aestivum), wild buckwheat (Polygonum convolvulus), wild mustard (Sinapis arvensis), wild oat (Avena fatua), wild radish (Raphanus raphanistrum), windgrass (Apera spica-venti), winter barley (Hordeum vulgare), and winter wheat (Triticum aestivum) were planted into a silt loam soil and treated preemergence with test chemicals formulated in a non-phytotoxic solvent mixture which included a surfactant.
# At the same time, these species were planted in pots containing Redi-Earth® planting medium (Scotts Company, 14111 Scottslawn Road, Marysville, Ohio 43041) comprising spaghnum peat moss, vermiculite, wetting agent and starter nutrients and treated with postemergence applications of the test chemicals formulated in the same manner. Plants ranged in height from 2 to 18 cm (1- to 4-leaf stage). Treated plants and controls were maintained in a controlled growth environment for 7 to 21 days after which time all species were compared to controls and visually evaluated. Plant response ratings, summarized in Table D, are based on a scale of 0 to 100 where 0 is no effect and 100 is complete control. A dash (-) response means no test result.
# bromegrass, downy = experiment: Test D postemergence; assay type: in vivo, Bromus tectorum; settings: Bromus tectorum, post-emergence, Postemergence, scale 0 to 100 (0 no effect, 100 complete control), read-out: Plant response rating, Bromegrass, Downy
# In short: as §1
# Italian ryegrass = experiment: Test F preemergence; assay type: in vivo, Lolium multiflorum; settings: 21 days, scale 0 to 100
# Excerpt: as §3, §4
# green foxtail = experiment: Test D preemergence; assay type: in vivo, Setaria viridis; settings: Setaria viridis, pre-emergence
# In short: as §1
# kochia = experiment: Test D postemergence; assay type: in vivo, Kochia scoparia; settings: Bassia scoparia, post-emergence
# In short: as §1
smiles,measurement,setting,value
"N#Cc1cccc(Oc2ncc(Cl)cn2)c1-n1cc(OCC(F)(F)F)cn1 [Compound 274, 3-[(5-chloro-2-pyrimidinyl)oxy]-2-[4-(2,2,2-trifluoroethoxy)-1H-pyrazol-1-yl]benzonitrile]",pest or weed control at 16 g/ha,"blackgrass; 16 g ai/ha, scale 0 (no effect) to 100 (complete control), read-out: Plant response rating, Blackgrass",10%
same,pest or weed control at 31 g/ha,"blackgrass; 31 g ai/ha, scale 0-100, read-out: Plant response rating, Blackgrass",30%
same,pest or weed control at 62 g/ha,"blackgrass; 62 g ai/ha, scale 0-100, read-out: Plant response rating, Blackgrass",70%
same,pest or weed control at 125 g/ha,"blackgrass; 125 g ai/ha, scale 0-100, read-out: Plant response rating, Blackgrass",95%
same,"Plant response rating, Surinam Grass",surinam grass; 16 g ai/ha,10
same,"Plant response rating, Surinam Grass",surinam grass; 31 g ai/ha,35
same,"Plant response rating, Surinam Grass",surinam grass; 62 g ai/ha,70
same,"Plant response rating, Surinam Grass",surinam grass; 125 g ai/ha,100
same,"Plant response rating, Surinam Grass",surinam grass; 250 g ai/ha,100
same,"Plant response rating, Dallisgrass",dallisgrass; 16 g ai/ha,95
same,"Plant response rating, Dallisgrass",dallisgrass; 31 g ai/ha,100
same,"Plant response rating, Dallisgrass",dallisgrass; 62 g ai/ha,100
same,"Plant response rating, Dallisgrass",dallisgrass; 125 g ai/ha,100
same,"Plant response rating, Dallisgrass",dallisgrass; 250 g ai/ha,100
same,"Plant response rating, Sandbur",sandbur; 16 g ai/ha,5
same,"Plant response rating, Sandbur",sandbur; 31 g ai/ha,20
same,"Plant response rating, Sandbur",sandbur; 62 g ai/ha,70
same,"Plant response rating, Sandbur",sandbur; 125 g ai/ha,95
same,"Plant response rating, Sandbur",sandbur; 250 g ai/ha,100
same,pest or weed control at 16 g/ha,"galium; 16 g ai/ha, scale 0 (no effect) to 100 (complete control), read-out: Plant response rating, Galium",0%
same,pest or weed control at 31 g/ha,"galium; 31 g ai/ha, scale 0-100, read-out: Plant response rating, Galium",60%
same,pest or weed control at 62 g/ha,"galium; 62 g ai/ha, scale 0-100, read-out: Plant response rating, Galium",100%
same,pest or weed control at 125 g/ha,"galium; 125 g ai/ha, scale 0-100, read-out: Plant response rating, Galium",100%
same,"Plant response rating, Guineagrass",guineagrass; 16 g ai/ha,100
same,"Plant response rating, Guineagrass",guineagrass; 31 g ai/ha,100
same,"Plant response rating, Guineagrass",guineagrass; 62 g ai/ha,100
same,"Plant response rating, Guineagrass",guineagrass; 125 g ai/ha,100
same,"Plant response rating, Guineagrass",guineagrass; 250 g ai/ha,100
same,"Plant response rating, Crabgrass, Large",large (Lg) crabgrass; 16 g ai/ha,100
same,"Plant response rating, Crabgrass, Large",large (Lg) crabgrass; 31 g ai/ha,100
same,"Plant response rating, Crabgrass, Large",large (Lg) crabgrass; 62 g ai/ha,100
same,"Plant response rating, Crabgrass, Large",large (Lg) crabgrass; 125 g ai/ha,100
same,"Plant response rating, Crabgrass, Large",large (Lg) crabgrass; 250 g ai/ha,100
same,plant injury at 16 g/ha,"oilseed rape; 16 g ai/ha, scale 0 (no effect) to 100 (complete control), read-out: Plant response rating, Oilseed Rape",35%
same,plant injury at 31 g/ha,"oilseed rape; 31 g ai/ha, scale 0-100, read-out: Plant response rating, Oilseed Rape",30%
same,plant injury at 62 g/ha,"oilseed rape; 62 g ai/ha, scale 0-100, read-out: Plant response rating, Oilseed Rape",65%
same,plant injury at 125 g/ha,"oilseed rape; 125 g ai/ha, scale 0-100, read-out: Plant response rating, Oilseed Rape",75%
same,"Plant response rating, Foxtail, Green","foxtail, green; 16 g ai/ha",100
same,"Plant response rating, Foxtail, Green","foxtail, green; 31 g ai/ha",100
same,"Plant response rating, Foxtail, Green","foxtail, green; 62 g ai/ha",100
same,"Plant response rating, Foxtail, Green","foxtail, green; 125 g ai/ha",100
same,"Plant response rating, Foxtail, Green","foxtail, green; 250 g ai/ha",100
same,"Plant response rating, Bermudagrass",bermudagrass; 16 g ai/ha,85
same,"Plant response rating, Bermudagrass",bermudagrass; 31 g ai/ha,100
same,"Plant response rating, Bermudagrass",bermudagrass; 62 g ai/ha,100
same,"Plant response rating, Bermudagrass",bermudagrass; 125 g ai/ha,100
same,"Plant response rating, Bermudagrass",bermudagrass; 250 g ai/ha,100
same,pest or weed control at 16 g/ha,"speedwell; 16 g ai/ha, scale 0-100, read-out: Plant response rating, Speedwell",75%
same,pest or weed control at 31 g/ha,"speedwell; 31 g ai/ha, scale 0 to 100 (0 no effect, 100 complete control), read-out: Plant response rating, Speedwell",100%
same,pest or weed control at 62 g/ha,"speedwell; 62 g ai/ha, scale 0 to 100 (0 no effect, 100 complete control), read-out: Plant response rating, Speedwell",85%
same,pest or weed control at 125 g/ha,"speedwell; 125 g ai/ha, scale 0 to 100 (0 no effect, 100 complete control), read-out: Plant response rating, Speedwell",100%
same,pest or weed control at 16 g/ha,"bromegrass, downy; 16 g ai/ha",20%
same,pest or weed control at 31 g/ha,"bromegrass, downy; 31 g ai/ha",25%
same,pest or weed control at 62 g/ha,"bromegrass, downy; 62 g ai/ha",35%
same,pest or weed control at 125 g/ha,"bromegrass, downy; 125 g ai/ha",40%
same,"Plant response rating, Ryegrass, Italian",Italian ryegrass; 16 g ai/ha,35
same,"Plant response rating, Ryegrass, Italian",Italian ryegrass; 31 g ai/ha,40
same,"Plant response rating, Ryegrass, Italian",Italian ryegrass; 62 g ai/ha,70
same,"Plant response rating, Ryegrass, Italian",Italian ryegrass; 125 g ai/ha,75
same,"Plant response rating, Ryegrass, Italian",Italian ryegrass; 250 g ai/ha,100
same,pest or weed control at 16 g/ha,"green foxtail; 16 g ai/ha, scale 0 (no effect) to 100 (complete control), read-out: Plant response rating, Foxtail, Green",15%
same,pest or weed control at 31 g/ha,"green foxtail; 31 g ai/ha, scale 0-100, read-out: Plant response rating, Foxtail, Green",75%
same,pest or weed control at 62 g/ha,"green foxtail; 62 g ai/ha, scale 0-100, read-out: Plant response rating, Foxtail, Green",100%
same,pest or weed control at 125 g/ha,"green foxtail; 125 g ai/ha, scale 0-100, read-out: Plant response rating, Foxtail, Green",100%
same,pest or weed control at 16 g/ha,"kochia; 16 g ai/ha, scale 0-100, read-out: Plant response rating, Kochia",60%
same,pest or weed control at 31 g/ha,"kochia; 31 g ai/ha, scale 0 to 100 (0 no effect, 100 complete control), read-out: Plant response rating, Kochia",70%
same,pest or weed control at 62 g/ha,"kochia; 62 g ai/ha, scale 0 to 100 (0 no effect, 100 complete control), read-out: Plant response rating, Kochia",90%
same,pest or weed control at 125 g/ha,"kochia; 125 g ai/ha, scale 0 to 100 (0 no effect, 100 complete control), read-out: Plant response rating, Kochia",95%
